Positions of bridges follow the written chain, without caps; N, C: chain ends. Non-standard residues stand in square brackets, D forms with d. Residues, ends and D or L forms follow the SMILES beside them. *: point of attachment. Phe(4-CONH2) = NC(=O)c1ccc(C[C@H](N)C(=O)O)cc1; Phe(4-CH2NH2) = NCc1ccc(C[C@H](N)C(=O)O)cc1; Bip = N[C@@H](Cc1ccc(-c2ccccc2)cc1)C(=O)O; NMeF = CN[C@@H](Cc1ccccc1)C(=O)O; Cha = N[C@@H](CC1CCCCC1)C(=O)O; Cit = NC(=O)NCCC[C@H](N)C(=O)O; hSer = N[C@@H](CCO)C(=O)O; Carboxymethyl = O=C(O)C*; NMeA = CN[C@@H](C)C(=O)O; Dab = NCC[C@H](N)C(=O)O; Sar = CNCC(=O)O

T1 sequence (Q15116 25-288): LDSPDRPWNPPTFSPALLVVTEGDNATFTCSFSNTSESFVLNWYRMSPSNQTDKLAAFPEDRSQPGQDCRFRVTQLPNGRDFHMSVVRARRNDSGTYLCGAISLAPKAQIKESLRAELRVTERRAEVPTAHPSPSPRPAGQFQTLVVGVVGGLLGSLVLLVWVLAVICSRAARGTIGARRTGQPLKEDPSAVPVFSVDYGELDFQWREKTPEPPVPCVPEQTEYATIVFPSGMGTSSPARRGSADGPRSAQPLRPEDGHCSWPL

This assay has as its target T1, human PD-1 (Jurkat-PD-1 cells) / PE-labeled human PD-L1-Ig (Homo sapiens, UniProt Q15116).
T1 construct: expressed in transfected cells; host or cells: Jurkat cell line over-expressing human PD-1
The assay is described as follows: Jurkat-PD-1 Cell Binding High-Content Screening Assay (CBA); Jurkat hPD1-PDL1 assay. Conditions: Jurkat cell line over-expressing human PD-1; PE-labeled PD-L1-Ig 20 nM final; compound incubated 2 hours at 37° C.; read-out: Jurkat HPD1-PDL1 IC50. A digest of the protocol:
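Jurkat cells overexpressing human PD-1 (8×10^3 per well, DMEM with 10% FCS) were preincubated with compound for 2 hours at 37° C. PE-labeled human PD-L1-Ig was then added at 20 nM final. Binding was quantified by high-content imaging.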
For the molecule `CC(C)C[C@@H]1NC(=O)[C@H](CCCNC(=N)N)NC(=O)[C@H](Cc2ccccc2)N(C)C(=O)[C@H](C)N(C)C(=O)[C@H](CCCNC(N)=O)NC(=O)[C@H](Cc2ccc(-c3ccccc3)cc2)NC(=O)[C@H](C(C)C)NC(=O)[C@H](Cc2c[nH]c3ccccc23)NC(=O)[C@H](CC(=O)O)NC(=O)[C@H](Cc2ccc(O)cc2)NC(=O)[C@H](Cc2ccccc2)NC(=O)CSC[C@@H](C(=O)NCC(N)=O)NC(=O)[C@H](CO)NC(=O)[C@H](C(C)C)NC1=O` [Example 1245] ({CH2CO}-FYDWV[Bip][Cit][NMeA][NMeF]RLVSCG-NH2; thioether N-14), the IC50 came out at 110 nM. The figure for `CC(C)C[C@@H]1NC(=O)[C@H](CCCNC(=N)N)NC(=O)[C@H](Cc2ccccc2)N(C)C(=O)[C@H](C)N(C)C(=O)[C@H](CCCNC(=N)N)NC(=O)[C@H](Cc2ccc(-c3ccccc3)cc2)NC(=O)[C@H](C(C)C)NC(=O)[C@H](Cc2c[nH]c3ccccc23)NC(=O)[C@H](CC(=O)O)NC(=O)[C@H](Cc2ccc(O)cc2)NC(=O)[C@H](Cc2ccc(OCC(=O)O)cc2)NC(=O)CSC[C@@H](C(=O)NCC(N)=O)NC(=O)[C@H](CO)NC(=O)[C@H](C(C)C)NC1=O` [Example 1246] ({CH2CO}-Y(Carboxymethyl)YDWV[Bip]R[NMeA][NMeF]RLVSCG-NH2; thioether N-14) is 250 nM; for `COc1ccc(C[C@@H]2NC(=O)CSC[C@@H](C(=O)NCC(N)=O)NC(=O)[C@H](CO)NC(=O)[C@H](C(C)C)NC(=O)[C@H](CC(C)C)NC(=O)[C@H](CCCNC(=N)N)NC(=O)[C@H](Cc3ccccc3)N(C)C(=O)[C@H](C)N(C)C(=O)[C@H](CCCNC(=N)N)NC(=O)[C@H](Cc3ccc(-c4ccccc4)cc3)NC(=O)[C@H](C(C)C)NC(=O)[C@H](Cc3c[nH]c4ccccc34)NC(=O)[C@H](CC(=O)O)NC(=O)[C@H](Cc3ccc(O)cc3)NC2=O)cc1` [Example 1247] ({CH2CO}-Y(Me)YDWV[Bip]R[NMeA][NMeF]RLVSCG-NH2; thioether N-14) it is 230 nM; for `CC(C)C[C@@H]1NC(=O)[C@H](CCCNC(=N)N)NC(=O)[C@H](Cc2ccccc2)N(C)C(=O)[C@H](C)N(C)C(=O)[C@H](CCCNC(=N)N)NC(=O)[C@H](Cc2ccc(-c3ccccc3)cc2)NC(=O)[C@H](C(C)C)NC(=O)[C@H](Cc2c[nH]c3ccccc23)NC(=O)[C@H](CC(=O)O)NC(=O)[C@H](Cc2ccc(O)cc2)NC(=O)[C@H](CC2CCCCC2)NC(=O)CSC[C@@H](C(=O)NCC(N)=O)NC(=O)[C@H](CO)NC(=O)[C@H](C(C)C)NC1=O` [Example 1248] ({CH2CO}-[Cha]YDWV[Bip]R[NMeA][NMeF]RLVSCG-NH2; thioether N-14) it is 360 nM.

For `CC(C)C[C@@H]1NC(=O)[C@H](CCCNC(=N)N)NC(=O)[C@H](Cc2ccccc2)N(C)C(=O)[C@H](C)N(C)C(=O)[C@H](CCCNC(=N)N)NC(=O)[C@H](Cc2ccc(-c3ccccc3)cc2)NC(=O)[C@H](C(C)C)NC(=O)[C@H](Cc2c[nH]c3ccccc23)NC(=O)[C@H](CC(=O)O)NC(=O)[C@H](Cc2cnc[nH]2)NC(=O)[C@H](Cc2ccccc2)NC(=O)CSC[C@@H](C(=O)NCC(N)=O)NC(=O)[C@H](CO)NC(=O)[C@H](C(C)C)NC1=O` [Example 1249] ({CH2CO}-FHDWV[Bip]R[NMeA][NMeF]RLVSCG-NH2; thioether N-14), the IC50 was found to be 270 nM.

`CC(C)C[C@@H]1NC(=O)[C@H](CCCNC(=N)N)NC(=O)[C@H](Cc2ccccc2)N(C)C(=O)[C@H](C)N(C)C(=O)[C@H](CCCNC(=N)N)NC(=O)[C@H](Cc2ccc(-c3ccccc3)cc2)NC(=O)[C@H](C(C)C)NC(=O)[C@H](Cc2c[nH]c3ccccc23)NC(=O)[C@H](CC(=O)O)NC(=O)[C@H](Cc2ccc(O)cc2)NC(=O)[C@H](Cc2ccccc2)N(C)C(=O)CSC[C@@H](C(=O)NCC(N)=O)NC(=O)[C@H](CO)NC(=O)[C@H](C(C)C)NC1=O` [Example 1250] ({CH2CO}-[NMeF]YDWV[Bip]R[NMeA][NMeF]RLVSCG-NH2; thioether N-14): the IC50 stood at 320 nM. The value for `CC(C)C[C@@H]1NC(=O)[C@H](Cc2c[nH]c3ccccc23)NC(=O)[C@H](CC(=O)O)NC(=O)[C@H](Cc2ccc(O)cc2)NC(=O)[C@H](Cc2ccccc2)NC(=O)CSC[C@@H](C(=O)N[C@@H](CCC(=O)O)C(N)=O)NC(=O)[C@H](CO)NC(=O)[C@H](C(C)C)NC(=O)[C@H](CC(C)C)NC(=O)[C@H](CC(N)=O)NC(=O)CN(C)C(=O)[C@H](C)N(C)C(=O)[C@H](C(C)C)NC(=O)[C@H](Cc2ccc(-c3ccccc3)cc2)NC1=O` [Example 1251] ({CH2CO}-FYDWL[Bip]V[NMeA][Sar]NLVSCE-NH2; thioether N-14) was 360 nM. The value for `CC(C)C[C@@H]1NC(=O)[C@H](Cc2c[nH]c3ccccc23)NC(=O)[C@H](CC(=O)O)NC(=O)[C@H](Cc2ccc(O)cc2)NC(=O)[C@H](Cc2ccccc2)NC(=O)CSC[C@@H](C(=O)N[C@@H](C)C(N)=O)NC(=O)[C@H](CO)NC(=O)[C@H](C(C)C)NC(=O)[C@H](CC(C)C)NC(=O)[C@H](CC(N)=O)NC(=O)CN(C)C(=O)[C@H](C)N(C)C(=O)[C@H](C(C)C)NC(=O)[C@H](Cc2ccc(-c3ccccc3)cc2)NC1=O` [Example 1252] ({CH2CO}-FYDWL[Bip]V[NMeA][Sar]NLVSCA-NH2; thioether N-14) was 190 nM; that for `CC(C)C[C@@H]1NC(=O)[C@H](Cc2c[nH]c3ccccc23)NC(=O)[C@H](CC(=O)O)NC(=O)[C@H](Cc2ccc(O)cc2)NC(=O)[C@H](Cc2ccccc2)NC(=O)CSC[C@@H](C(=O)N[C@@H](CCCCN)C(N)=O)NC(=O)[C@H](CO)NC(=O)[C@H](C(C)C)NC(=O)[C@H](CC(C)C)NC(=O)[C@H](CC(N)=O)NC(=O)CN(C)C(=O)[C@H](C)N(C)C(=O)[C@H](C(C)C)NC(=O)[C@H](Cc2ccc(-c3ccccc3)cc2)NC1=O` [Example 1253] ({CH2CO}-FYDWL[Bip]V[NMeA][Sar]NLVSCK-NH2; thioether N-14) was 710 nM. The value for `CC(C)C[C@@H]1NC(=O)[C@H](Cc2c[nH]c3ccccc23)NC(=O)[C@H](CC(=O)O)NC(=O)[C@H](Cc2ccc(O)cc2)NC(=O)[C@H](Cc2ccccc2)NC(=O)CSC[C@@H](C(=O)N[C@@H](CCCNC(=N)N)C(N)=O)NC(=O)[C@H](CO)NC(=O)[C@H](C(C)C)NC(=O)[C@H](CC(C)C)NC(=O)[C@H](CC(N)=O)NC(=O)CN(C)C(=O)[C@H](C)N(C)C(=O)[C@H](C(C)C)NC(=O)[C@H](Cc2ccc(-c3ccccc3)cc2)NC1=O` [Example 1254] ({CH2CO}-FYDWL[Bip]V[NMeA][Sar]NLVSCR-NH2; thioether N-14) was 850 nM. Turning to `CC(C)C[C@@H]1NC(=O)[C@H](CCCNC(=N)N)NC(=O)[C@H](Cc2ccccc2)N(C)C(=O)[C@H](CCN)NC(=O)[C@H](CCCNC(=N)N)NC(=O)[C@H](Cc2ccc(-c3ccccc3)cc2)NC(=O)[C@H](C(C)C)NC(=O)[C@H](Cc2c[nH]c3ccccc23)NC(=O)[C@H](CC(=O)O)NC(=O)[C@H](Cc2ccc(O)cc2)NC(=O)[C@H](Cc2ccccc2)NC(=O)CSC[C@@H](C(=O)NCC(N)=O)NC(=O)[C@H](CO)NC(=O)[C@H](C(C)C)NC1=O` [Example 1255] ({CH2CO}-FYDWV[Bip]R[Dab][NMeF]RLVSCG-NH2; thioether N-14), the IC50 came out at 430 nM. The figure for `CC(C)C[C@@H]1NC(=O)[C@H](CCCNC(=N)N)NC(=O)[C@H](Cc2ccccc2)N(C)C(=O)[C@H](C)N(C)C(=O)[C@H](CCCNC(=N)N)NC(=O)[C@H](Cc2ccc(-c3ccccc3)cc2)NC(=O)[C@H](C(C)C)NC(=O)[C@H](Cc2c[nH]c3ccccc23)NC(=O)[C@H](CC(=O)O)NC(=O)[C@H](Cc2ccc(O)cc2)NC(=O)[C@H](Cc2ccc(CN)cc2)NC(=O)CSC[C@@H](C(=O)NCC(N)=O)NC(=O)[C@H](CO)NC(=O)[C@H](C(C)C)NC1=O` [Example 1256] ({CH2CO}-[Phe(4-CH2NH2)]YDWV[Bip]R[NMeA][NMeF]RLVSCG-NH2; thioether N-14) is 340 nM; for `CC(C)C[C@@H]1NC(=O)[C@H](CCCNC(=N)N)NC(=O)[C@H](Cc2ccccc2)N(C)C(=O)[C@H](C)N(C)C(=O)[C@H](CCCNC(=N)N)NC(=O)[C@H](Cc2ccc(-c3ccccc3)cc2)NC(=O)[C@H](C(C)C)NC(=O)[C@H](Cc2c[nH]c3ccccc23)NC(=O)[C@H](CC(=O)O)NC(=O)[C@H](Cc2ccc(O)cc2)NC(=O)[C@H](Cc2ccc(C(N)=O)cc2)NC(=O)CSC[C@@H](C(=O)NCC(N)=O)NC(=O)[C@H](CO)NC(=O)[C@H](C(C)C)NC1=O` [Example 1257] ({CH2CO}-[Phe(4-CONH2)]YDWV[Bip]R[NMeA][NMeF]RLVSCG-NH2; thioether N-14) it is 80 nM; for `CC(C)C[C@@H]1NC(=O)[C@H](CCCNC(=N)N)NC(=O)[C@H](Cc2ccccc2)N(C)C(=O)[C@H](C)N(C)C(=O)[C@H](CCCNC(=N)N)NC(=O)[C@H](Cc2ccc(-c3ccccc3)cc2)NC(=O)[C@H](C(C)C)NC(=O)[C@H](Cc2c[nH]c3ccccc23)NC(=O)[C@H](CC(=O)O)NC(=O)[C@H](Cc2ccc(O)cc2)NC(=O)CNC(=O)CSC[C@@H](C(=O)NCC(N)=O)NC(=O)[C@H](CO)NC(=O)[C@H](C(C)C)NC1=O` [Example 1258] ({CH2CO}-GYDWV[Bip]R[NMeA][NMeF]RLVSCG-NH2; thioether N-14) it is 240 nM. The value for `COCC[C@@H]1NC(=O)[C@H](C(C)C)NC(=O)[C@H](CC(C)C)NC(=O)[C@H](CCCNC(=N)N)NC(=O)[C@H](Cc2ccccc2)N(C)C(=O)[C@H](C)N(C)C(=O)[C@H](CCCNC(=N)N)NC(=O)[C@H](Cc2ccc(-c3ccccc3)cc2)NC(=O)[C@H](C(C)C)NC(=O)[C@H](Cc2c[nH]c3ccccc23)NC(=O)[C@H](CC(=O)O)NC(=O)[C@H](Cc2ccc(O)cc2)NC(=O)[C@H](Cc2ccccc2)NC(=O)CSC[C@@H](C(=O)NCC(N)=O)NC1=O` [Example 1259] ({CH2CO}-FYDWV[Bip]R[NMeA][NMeF]RLV[hSer](Me)CG-NH2; thioether N-14) was 260 nM.

These data come from patent publication US20240360178A1, “MACROCYCLIC IMMUNOMODULATORS” (Bristol-Myers Squibb Company, priority 2021, published 2024).
